The values that follow come from US4871756A, “Leukotriene antagonists” (Merck Frosst Canada, Inc., priority 1987, dated 1989).

In this assay the test system is Leukotriene D4 (ileum contraction induced by LTD4). The experiment in a line: Guinea Pig Ileum Assay for Evaluation of Antagonists of Leukotriene D4 (Inhibition of Ileum Contraction Induced by LTD4). It counts as cell-based, guinea pig (male Hartley strain). Conditions: Cavia porcellus, LTD4 0.3 ng/ml, 30 second pretreatment; for inhibition at 10 µg/mL: 10 μg/ml. As to the method:
The terminal ileum from male Hartley strain guinea pigs (300-500 g) was removed and suspended under 1 g resting tension in Tyrode's solution containing 1.0×10^-6 M atropine sulfate and 1.6×10^-6 M timolol (beta blocker). After a 15-30 minute stabilization period, a standard dose of leukotriene D4 (0.3 ng/ml--final bath concentration)was added repeatedly until consistent and reproducible contractile responses were obtained. Isometric contractions to leukotriene D4 were recorded for 60 seconds and then the tissue was washed and allowed to recove to baseline (2 minutes) before the next dose of leukotriene D4 was added. For testing antagonist compounds, a 30 second pretreatment period was used and the percent inhibition of the control contraction to leukotriene D4 was recorded. A similar procedure was employed for testing active compounds against contractions to a standard dose of histamine (50 ng/ml--final bath concentration).

By inhibition is commonly meant the percentage by which the read-out fell short of the control. For `CCCc1c(OCC2(O)CCCCC2Sc2ccc(C(=O)CCC(=O)O)cc2)ccc(C(C)=O)c1O` [L-649,106], the inhibition at 10 µg/mL was determined as 80%. For the same compound, for the setting “1 μg/ml”, the inhibition at 1 µg/mL was 23%. Turning to `CCCc1c(OCC2(Sc3ccc(C(=O)CCC(=O)O)cc3)CCCCC2O)ccc(C(C)=O)c1O` [L-649,107], the inhibition at 10 µg/mL was 12%.
